Converted amounts (≈) assume the structure as drawn. Read-outs that look alike come from different tables or passages of the source.
Tests used:
[1] = system: Escherichia coli IFO 12734; assay: Antimicrobial spectrum, agar dilution method (in vitro); format: cell-based; details: IFO12734, medium B, 37 °C, 20 hr, read-out: Minimal inhibitory concentration
Text: (§1) B 0.5% of Ehrlich's meat extract, 0.5% of polypeptone, 0.5% of NaCl, 1.5%

[2] = system: Proteus vulgaris IFO 3045; assay: as above; format: cell-based; details: IFO3045, medium B, 37 °C, 20 hr, read-out: Minimal inhibitory concentration
Text: as §1

[3] = system: Bacillus subtilis IFO 3513; assay: as above; format: cell-based; details: IFO3513, medium B, 37 °C, 20 hr, read-out: Minimal inhibitory concentration
Text: as §1

[4] = system: Totranychus urticae; assay: Miticidal effect on kidney bean seedlings; format: in vivo; details: 500 ppm, 28 °C, 20 ml per pot
Procedure: The test on the miticidal effect was carried out. The seedlings (5 days after germination) of kidney bean grown in pots (9 cm in diameter) were inoculated on their main leaves with about 50 female adults of Totranychus urticae, and the test chemical solution was sprayed in 20 ml quantities per pot by means of a spray gun. After spraying, the pots were placed in a phytotron (28° C.), and a number of surving mites on leaves was investigated at the 5th and 7th day to determine a decrease rate against a number of mites immediately before spraying [=(number of mites tested-number of surving mites)/(number of mites tested)×100].

[5] = system: Sclerotinia sclerotiorum IFO 9395; assay: Antimicrobial spectrum, agar dilution method (in vitro); format: cell-based; details: IFO9395, medium A, 28 °C, 40 hr, read-out: Minimal inhibitory concentration
[6] = system: Penicillium chrysogenum IFO 4626; assay: as above; format: cell-based; details: IFO4626, medium A, 28 °C, 40 hr, read-out: Minimal inhibitory concentration
[7] = system: Rhodotorula rubra IFO 0870; assay: as above; format: cell-based; details: IFO0870, medium A, 28 °C, 40 hr, read-out: Minimal inhibitory concentration
[8] = system: powdery mildew of barley; assay: Controlling effect against powdery mildew of barley (method of Iwasa et al.); format: in vivo; details: in words
Text: The controlling effect against powdery mildew of barley was investigated according to the method of Iwasa, et. al. (The Journal of Antibiotics, vol. 31, No. 6, pp. 512, 1978).

[9] = system: Mycobacterium phlei IFO 3158; assay: Antimicrobial spectrum, agar dilution method (in vitro); format: cell-based; details: Mycolicibacterium phlei, IFO3158; medium C, 37 °C, 40 hr; read-out: Minimal inhibitory concentration
Text: (§2) C 3.0% of glycerin, 0.5% of Ehrlich's meat extract, 0.5% of NaCl, 1.5% of […]

[10] = system: Mycobacterium smegmatis ATCC 607; assay: as above; format: cell-based; details: Mycolicibacterium smegmatis, ATCC607; medium C, 37 °C, 40 hr; read-out: Minimal inhibitory concentration
Text: as §2

[11] = system: Guignardia laricina IFO 7886; assay: as above; format: cell-based; details: Neofusicoccum laricinum, IFO7886; medium A, 28 °C, 88 hr; read-out: Minimal inhibitory concentration
[12] = in vivo; details: mouse
[13] = system: fungi of late blight of tomato; format: in vivo; details: tomato plants in pots, 4 days, nontreated group taken as 100%
[14] = system: Cochlioborus miyabeanus IFO 5277; assay: Antimicrobial spectrum, agar dilution method (in vitro); details: 40 h, read-out: Minimal inhibitory concentration
[15] = system: Saccharomyces cerevisiae IFO 0209; assay: as above; format: cell-based; details: IFO0209, medium A, 28 °C, 40 hr, read-out: Minimal inhibitory concentration
[16] = Solubilities; format: physicochemical; details: free base
[17] = system: some bacteria; assay: Antimicrobial spectrum, agar dilution method (in vitro), summary in words; format: cell-based

Work on `N=C(N)NCC(O)CC(O)(C(=O)O)C1OC(n2cc(F)c(N)nc2=O)C=CC1NC(=O)C(N)CO` (stereo not shown) [Example 7] yielded an MIC [1] of 250 mg/L (≈ 498 µM), an MIC [2] of over 500 mg/L and an MIC [3] of 250 mg/L (≈ 498 µM). The “Decrease rate against number of mites immediately before spraying, 5th day” value (shortened to “Decrease rate against number … 5th day”) [4] was 100, the “Decrease rate against number of mites immediately before spraying, 7th day” value (shortened to “Decrease rate against number … 7th day”) [4] was 100 and the MIC [5] was 250 mg/L (≈ 498 µM). The MIC [6] was 250 mg/L (≈ 498 µM), the MIC [7] was under 10 mg/L and the “controlling effect against powdery mildew of barley” value (shortened to “controlling effect”) [8] was “greatly effective”. It also gave an MIC [9] of 25 mg/L (≈ 49.8 µM), an MIC [10] of 100 mg/L (≈ 199 µM) and an MIC [11] of 250 mg/L (≈ 498 µM). It also gave an LD50 ([12]; ip) of over 200 mg/kg, an LD50 ([12]; iv) of over 100 mg/kg and an LD50 ([12]; sc) of over 200 mg/kg. For the same molecule, the “Percent area of lesions” value ([13]; 150 ppm) was 100%, the “Percent area of lesions” value ([13]; 200 ppm) was 16% and the “Percent area of lesions” value ([13]; 250 ppm) was 0%. For the same molecule, the “Percent area of lesions” value ([13]; 300 ppm) was 0%, the “Percent area of lesions” value ([13]; 500 ppm) was 0% and the MIC [14] was 100 mg/L (≈ 199 µM). For the same molecule, the MIC [15] was 100 mg/L (≈ 199 µM), the “solubility in organic solvents” value [16] was “less soluble” and the solubility in water [16] was “Easily soluble”.
With `Cc1cn(C2C=CC(NC(=O)C(N)CO)C(C(O)(CC(O)CNC(=N)N)C(=O)O)O2)c(=O)nc1N` (stereo not shown) [Example 6] the MIC [1] was 250 mg/L (≈ 502 µM), the MIC [2] was over 500 mg/L and the MIC [3] was 250 mg/L (≈ 502 µM). The “Decrease rate against number … 5th day” value [4] was 100, the “Decrease rate against number … 7th day” value [4] was 100 and the MIC [5] was 250 mg/L (≈ 502 µM). The MIC [6] was 250 mg/L (≈ 502 µM), the MIC [7] was under 10 mg/L and the “controlling effect” value [8] was “greatly effective”. It also gave an MIC [9] of 50 mg/L (≈ 100 µM), an MIC [10] of 100 mg/L (≈ 201 µM) and an MIC [11] of 250 mg/L (≈ 502 µM). It also gave an LD50 ([12]; ip) of over 200 mg/kg, an LD50 ([12]; iv) of over 100 mg/kg and an LD50 ([12]; sc) of over 200 mg/kg. For the same molecule, the “Percent area of lesions” value ([13]; 150 ppm) was 100%, the “Percent area of lesions” value ([13]; 200 ppm) was 17% and the “Percent area of lesions” value ([13]; 250 ppm) was 0%. The “Percent area of lesions” value ([13]; 300 ppm) was 0%, the “Percent area of lesions” value ([13]; 500 ppm) was 0% and the MIC [14] was 100 mg/L (≈ 201 µM). The MIC [15] was 100 mg/L (≈ 201 µM), the “solubility in organic solvents” value [16] was “less soluble” and the solubility in water [16] was “Easily soluble”.
Molecule `N=C(N)NCC(O)CC(O)(C(=O)O)C1OC(n2cc(Br)c(N)nc2=O)C=CC1NC(=O)C(N)CO` (stereo not shown) [Example 5] has an MIC [1] of 100 mg/L (≈ 178 µM), an MIC [2] of 250 mg/L (≈ 444 µM) and an MIC [3] of 250 mg/L (≈ 444 µM). The “Decrease rate against number … 5th day” value [4] was 100, the “Decrease rate against number … 7th day” value [4] was 100 and the MIC [5] was 500 mg/L (≈ 888 µM). The “antimicrobial activity against some bacteria” value [17] was “remarkably strong antimicrobial activity”, the MIC [6] was 250 mg/L (≈ 444 µM) and the MIC [7] was under 10 mg/L. The “controlling effect” value [8] was “greatly effective”, the MIC [9] was 25 mg/L (≈ 44.4 µM) and the MIC [10] was 25 mg/L (≈ 44.4 µM). For the same molecule, the MIC [11] was 250 mg/L (≈ 444 µM), the LD50 ([12]; ip) was over 200 mg/kg and the LD50 ([12]; iv) was over 100 mg/kg. The LD50 ([12]; sc) was over 200 mg/kg, the “Percent area of lesions” value ([13]; 150 ppm) was 100% and the “Percent area of lesions” value ([13]; 200 ppm) was 11%. The “Percent area of lesions” value ([13]; 250 ppm) was 0%, the “Percent area of lesions” value ([13]; 300 ppm) was 0% and the “Percent area of lesions” value ([13]; 500 ppm) was 0%. The MIC [14] was 100 mg/L (≈ 178 µM), the MIC [15] was 100 mg/L (≈ 178 µM) and the “solubility in organic solvents” value [16] was “less soluble”. The solubility in water [16] was “Easily soluble”.
In the case of `N=C(N)NCC(O)CC(O)(C(=O)O)C1OC(n2ccc(N)nc2=O)C=CC1NC(=O)C(N)CO` (stereo not shown) [Example 2], the MIC [1] is reported as 250 mg/L (≈ 516 µM), the MIC [2] is reported as over 500 mg/L and the MIC [3] is reported as 250 mg/L (≈ 516 µM). The “Decrease rate against number … 5th day” value [4] was 100, the “Decrease rate against number … 7th day” value [4] was 100 and the MIC [5] was 250 mg/L (≈ 516 µM). For the same molecule, the MIC [6] was 250 mg/L (≈ 516 µM), the MIC [7] was under 10 mg/L and the “controlling effect” value [8] was “greatly effective”. It also gave an MIC [9] of 50 mg/L (≈ 103 µM), an MIC [10] of 100 mg/L (≈ 206 µM) and an MIC [11] of 250 mg/L (≈ 516 µM). It also gave an LD50 ([12]; ip) of over 200 mg/kg, an LD50 ([12]; iv) of over 100 mg/kg and an LD50 ([12]; sc) of over 200 mg/kg. For the same molecule, the “Percent area of lesions” value ([13]; 150 ppm) was 55%, the “Percent area of lesions” value ([13]; 200 ppm) was 0% and the “Percent area of lesions” value ([13]; 250 ppm) was 0%. For the same molecule, the “Percent area of lesions” value ([13]; 300 ppm) was 0%, the “Percent area of lesions” value ([13]; 500 ppm) was 0% and the MIC [14] was 100 mg/L (≈ 206 µM). The MIC [15] was 100 mg/L (≈ 206 µM), the “solubility in organic solvents” value [16] was “less soluble” and the solubility in water [16] was “Easily soluble”.

From patent US4296107A, “Mildiomycin analogs and a method of production” (Takeda Chemical Industries, Ltd., priority 1979, dated 1981)
